Assay results taken from US12540128B2, “Substituted pyridazinones as herbicides” (SYNGENTA CROP PROTECTION AG, priority 2019, dated 2026).

Legend:
Type in all cases: in vivo
Details in all cases: 250 g/ha, after 13 days
Zea Mays (ZEAMX) [1] = experiment: B2 Post-Emergence Efficacy Test 2
Procedure: (§1) Seeds of a variety of test species are sown in standard soil in pots:— Amaranthus retoflexus (AMARE), Setaria faberi (SETFA), Echinochloa crus-galli (ECHCG), Ipomoea hederacea (IPOHE), Zea Mays (ZEAMX), Abutilon theophrasti (ABUTH). After 8 days cultivation (post-emergence) under controlled conditions in a glasshouse (at 24/16° C., day/night; 14 hours light; 65% humidity), the plants are sprayed with an aqueous spray solution derived from the formulation of the technical active ingredient in acetone/water (50:50) solution containing 0.5% Tween 20 (polyoxyethylene sorbitan monolaurate, CAS RN 9005-64-5). Compounds are applied at 250 g/ha. The test plants are then grown in a glasshouse under controlled conditions in a glasshouse (at 24/16° C., day/night; 14 hours light; 65% humidity) and watered twice daily. After 13 days, the test is evaluated for the percentage damage caused to the plant. The biological activities are assessed on a five point scale (5=80-100%; 4=60-79%; 3=40-59%; 2=20-39%; 1=0-19%). A blank value in the table is indicative that the compound was not tested on that species.

[2] = system: Ipomoea hederacea (IPOHE); experiment: B2 Post-Emergence Efficacy Test 2
Procedure: as §1

[3] = system: Echinochloa crus-galli (ECHCG); experiment: B2 Post-Emergence Efficacy Test 2
Procedure: as §1

[4] = system: Amaranthus retoflexus (AMARE); experiment: B2 Post-Emergence Efficacy Test 2
Procedure: as §1

[5] = system: Abutilon theophrasti (ABUTH); experiment: B2 Post-Emergence Efficacy Test 2
Procedure: as §1

Setaria faberi (SETFA) [6] = experiment: B2 Post-Emergence Efficacy Test 2
Procedure: as §1

Zea Mays (ZEAMX) [7] = experiment: B4 Pre-Emergence Efficacy Test 2
Procedure: (§2) Seeds of a variety of test species were sown in standard soil in pots: Amaranthus retoflexus (AMARE), Setaria faberi (SETFA), Echinochloa crus-galli (ECHCG), Ipomoea hederacea (IPOHE), Zea Mays (ZEAMX), Abutilon theophrasti (ABUTH). After cultivation for one day (pre-emergence) under controlled conditions in a glasshouse (at 24/16° C., day/night; 14 hours light; 65% humidity), the plants were sprayed with an aqueous spray solution derived from the formulation of the technical active ingredient in acetone/water (50:50) solution containing 0.5% Tween 20 (polyoxyethelyene sorbitan monolaurate, CAS RN 9005-64-5). Compounds are applied at 250 g/ha. The test plants were then grown in a glasshouse under controlled conditions (at 24/16° C., day/night; 14 hours light; 65% humidity) and watered twice daily. After 13 days, the test is evaluated for the percentage damage caused to the plant. The biological activities are assessed on a five point scale (5=80-100%; 4=60-79%; 3=40-59%; 2=20-39%; 1=0-19%). A blank value in the table is indicative that the compound was not tested on that species.

[8] = system: Ipomoea hederacea (IPOHE); experiment: B4 Pre-Emergence Efficacy Test 2
Procedure: as §2

[9] = system: Echinochloa crus-galli (ECHCG); experiment: B4 Pre-Emergence Efficacy Test 2
Procedure: as §2

[10] = system: Amaranthus retoflexus (AMARE); experiment: B4 Pre-Emergence Efficacy Test 2
Procedure: as §2

[11] = system: Abutilon theophrasti (ABUTH); experiment: B4 Pre-Emergence Efficacy Test 2
Procedure: as §2

Setaria faberi (SETFA) [12] = experiment: B4 Pre-Emergence Efficacy Test 2
Procedure: as §2

Cc1nn(C)c(=O)c(-c2c(F)ccc(Cl)c2CCc2cccc3ccccc23)c1O [Compound 1.044]
percentage damage caused to the plant, five point scale, ZEAMX (Zea Mays (ZEAMX) [1]): 1 (1=0-19%)
percentage damage caused to the plant, five point scale, IPOHE [2]: 4 (4=60-79%)
percentage damage caused to the plant, five point scale, ECHCG [3]: 0
percentage damage caused to the plant, five point scale, AMARE [4]: 3 (3=40-59%)
percentage damage caused to the plant, five point scale, ABUTH [5]: 3 (3=40-59%)
percentage damage caused to the plant, five point scale, SETFA (Setaria faberi (SETFA) [6]): 0
percentage damage caused to the plant, five point scale, ZEAMX (Zea Mays (ZEAMX) [7]): 1 (1=0-19%)
percentage damage caused to the plant, five point scale, IPOHE [8]: 3 (3=40-59%)
percentage damage caused to the plant, five point scale, ECHCG [9]: 0
percentage damage caused to the plant, five point scale, AMARE [10]: 2 (2=20-39%)
percentage damage caused to the plant, five point scale, ABUTH [11]: 3 (3=40-59%)
percentage damage caused to the plant, five point scale, SETFA (Setaria faberi (SETFA) [12]): 0

Cc1nn(C)c(=O)c(-c2c(F)ccc(Cl)c2CCc2ccc3ccccc3c2)c1O [Compound 1.053]
percentage damage caused to the plant, five point scale, ZEAMX (Zea Mays (ZEAMX) [1]): 4 (4=60-79%)
percentage damage caused to the plant, five point scale, IPOHE [2]: 4 (4=60-79%)
percentage damage caused to the plant, five point scale, ECHCG [3]: 3 (3=40-59%)
percentage damage caused to the plant, five point scale, AMARE [4]: 4 (4=60-79%)
percentage damage caused to the plant, five point scale, ABUTH [5]: 3 (3=40-59%)
percentage damage caused to the plant, five point scale, SETFA (Setaria faberi (SETFA) [6]): 4 (4=60-79%)
percentage damage caused to the plant, five point scale, ZEAMX (Zea Mays (ZEAMX) [7]): 1 (1=0-19%)
percentage damage caused to the plant, five point scale, IPOHE [8]: 1 (1=0-19%)
percentage damage caused to the plant, five point scale, ECHCG [9]: 2 (2=20-39%)
percentage damage caused to the plant, five point scale, AMARE [10]: 4 (4=60-79%)
percentage damage caused to the plant, five point scale, ABUTH [11]: 2 (2=20-39%)
percentage damage caused to the plant, five point scale, SETFA (Setaria faberi (SETFA) [12]): 2 (2=20-39%)

Cc1nn(C)c(=O)c(-c2c(F)ccc(Cl)c2CCc2ccc3c(c2)OC(F)(F)O3)c1O [Compound 1.342]
percentage damage caused to the plant, five point scale, ZEAMX (Zea Mays (ZEAMX) [1]): 4 (4=60-79%)
percentage damage caused to the plant, five point scale, IPOHE [2]: 5 (5=80-100%)
percentage damage caused to the plant, five point scale, ECHCG [3]: 5 (5=80-100%)
percentage damage caused to the plant, five point scale, AMARE [4]: 5 (5=80-100%)
percentage damage caused to the plant, five point scale, ABUTH [5]: 5 (5=80-100%)
percentage damage caused to the plant, five point scale, SETFA (Setaria faberi (SETFA) [6]): 4 (4=60-79%)
percentage damage caused to the plant, five point scale, ZEAMX (Zea Mays (ZEAMX) [7]): 1 (1=0-19%)
percentage damage caused to the plant, five point scale, ECHCG [9]: 5 (5=80-100%)
percentage damage caused to the plant, five point scale, AMARE [10]: 5 (5=80-100%)
percentage damage caused to the plant, five point scale, ABUTH [11]: 4 (4=60-79%)
percentage damage caused to the plant, five point scale, SETFA (Setaria faberi (SETFA) [12]): 5 (5=80-100%)

Cc1nn(C)c(=O)c(-c2c(F)ccc(Cl)c2CCc2nn(C)c3ccccc23)c1O [Compound 1.344]
percentage damage caused to the plant, five point scale, ZEAMX (Zea Mays (ZEAMX) [1]): 1 (1=0-19%)
percentage damage caused to the plant, five point scale, IPOHE [2]: 3 (3=40-59%)
percentage damage caused to the plant, five point scale, ECHCG [3]: 2 (2=20-39%)
percentage damage caused to the plant, five point scale, AMARE [4]: 3 (3=40-59%)
percentage damage caused to the plant, five point scale, ABUTH [5]: 4 (4=60-79%)
percentage damage caused to the plant, five point scale, ZEAMX (Zea Mays (ZEAMX) [7]): 0
percentage damage caused to the plant, five point scale, IPOHE [8]: 3 (3=40-59%)
percentage damage caused to the plant, five point scale, ECHCG [9]: 2 (2=20-39%)
percentage damage caused to the plant, five point scale, AMARE [10]: 3 (3=40-59%)
percentage damage caused to the plant, five point scale, ABUTH [11]: 4 (4=60-79%)
percentage damage caused to the plant, five point scale, SETFA (Setaria faberi (SETFA) [12]): 2 (2=20-39%)
